Test results published in patent publication US9387204B2, “Fused bicyclic imidazoles” (BAYER INTELLECTUAL PROPERTY GmbH, priority 2007, dated 2016).
Where two headings read alike, the source gives them in different places.

Columns and labels:
phospho-Akt (Ser473) = experiment: Cellular PI3K/Akt pathway assay (phospho-Akt ELISA); type: cell-based; settings: MCF7 cells, β-Heregulin stimulated, 48 h, phospho-Akt1 (Ser473) ELISA
Method: In order to study the cellular activity of the compounds according to the present invention, an Enzyme Linked Immunosorbent Assay (ELISA)-based assay has been used specific phospho-AKT. The assay is based on a Sandwich ELISA kit (PathScan™ Phospho-Akt1 (Ser473); Cell Signaling, USA; #7160).
The ELISA Kit detects endogenous levels of phosphorylated Akt protein. A phospho-Akt (Ser473) antibody (Cell Signaling, USA; #9271) has been coated onto the microwells. After incubation with cell lysates, the coated antibody captures the phosphorylated Akt protein. Following extensive washing, Akt1 monoclonal antibody (Cell Signaling, USA; #2967) is added to detect the captured phospho-Akt1 protein. HRP-linked anti-mouse antibody (HRP: horseradish peroxidase; Cell Signaling, USA; #7076) is then used to recognize the bound detection antibody. HRP substrate (=3,3′,5,5′-tetramethylbenzidine (TMB); Cell Signaling, USA; #7160) is added to develop colour. The magnitude of optical density for this developed color is proportional to the quantity of phosphorylated Akt protein. MCF7 cells (ATCC HTB-22) are seeded into 96 well fate bottom plates at a density of 10000 cells/well. 24 hours after seeding, the cells are serum starved using low-serum medium (IMEM media including 0.1% charcoal treated FCS (FCS: fetal calf serum)). […] To stimulate Akt phosphorylation, β-Heregulin (20 ng/ml β-HRG) is added in parallel to the compounds. Wells containing unstimulated control cells (no β-Heregulin stimulation) are incubated with or without the diluted compound. Wells containing untreated control cells (no compound) are filled with medium containing 0.5% v:v DMSO and are or are not stimulated with β-Heregulin.
Cells are harvested and lysed with brief sonification in 1× cell lysis buffer (20 mM Tris (pH7.5), 150 mM NaCl, 1 mM ethylene diaminetetraacetate (EDTA), 1 mM ethylene glycolbis(2-aminoethyl)-N,N,N′,N′-tetraacetic acid (EGTA), 1 vol % Triton X-100, 2.5 mM sodium pyrophosphate, 1 mM β-glycerolphosphate, 1 mM Na3VO4, 1 μg/ml leupeptin). The lysate is centrifuged for 10 min. at 4° C. and the supernatant is transferred to a new tube. 100 μl of sample diluent (0.1 vol % Tween-20, 0.1 vol % sodium azide in phosphate buffered saline (PBS)) are added to a microcentrifuge tube and 100 μl of cell lysate are transferred into the tube and vortexed. 100 μl of each diluted cell lysate are added to the appropriate ELISA well, and incubated overnight at 4° C. The plates are washed 4 times with 1× wash buffer (1 vol % tween-20, 0.33 vol % thymol, in PBS). Next 100 μl of detection antibody (Akt1 (2H10) monoclonal detection antibody; Cell Signaling, USA; #2967) are added to each well and incubation continued for 1 h at 37° C. The washing procedure is repeated between each step. 100 μl of secondary antibody (anti-mouse IgG HRP-linked antibody; Cell Signaling, USA; #7076) are added to each well and incubated for 30 min. at 37° C. Than, 100 μl of TMB substrate (0.05% 3,3′,5,5′ tetramethylbenzidine, 0.1% hydrogen peroxide, complex polypeptides in a buffered solution; Cell Signaling, USA; #7160) are added to each well and incubated for 30 min. at 25° C. Finally 100 μl of STOP solution (0.05 vol % α and β unsaturated carbonyl compound) are added to each well and the plate are shaked gently. The absorbance is measured at ? 450 nm (Wallac Victor2; Perkin Elmer, USA) within 30 min. after adding the STOP solution. The analysis of the data is performed using a statistical program (Excel; Microsoft, USA). Preferred compounds show an inhibitory activity towards Akt phosphorylation below 10 μM.

A549 cells [1] = system: A549 cells
A549 cells [2] = experiment: Cellular proliferation/cytotoxicity assay (Alamar Blue), A549 cells; settings: Homo sapiens, A549, 72 h, read-out: Anti-proliferative/Cytotoxic activity (A549 cells)
phospho-GSK3 (Ser9) = experiment: Cellular pGSK3 assay (phospho-GSK3 ELISA); type: cell-based; settings: Homo sapiens, MCF7 cells, 48 h, read-out: Cellular pGSK3 pathway assay
Method: In order to study the cellular activity of the compounds according to the present invention, an ELISA-based assay has been established for the phosphorylated protein glycogen synthetase kinase 3 (GSK3). The assay is based on a solid phase sandwich ELISA that detects endogenous levels of phosphorylated GSK3 using a phospho-GSK3 (Ser9) specific antibody (BioSource International, Inc.; Catalog #KHO0461). After incubation with cell lysates, the coated antibody captures the phosphorylated GSK3 protein. Following extensive washing, GSK3 polyclonal antibody is added to detect the captured phospho-GSK3 protein. Secondary antibody (anti-rabbit IgG-HRP) is then used to recognize the bound detection antibody. After the second incubation and washing to remove all the excess anti-rabbit IgG-HRP, a substrate solution is added, which is acted upon by the bound enzyme to produce color. The intensity of this colored product is directly proportional to the concentration of GSK-3β [pS9] present in the original specimen.
MCF7 cells (ATCC HTB-22) were seeded into 96 well fate bottom plates at a density of 10000 cells/well. […] Cells were harvested and lysed in cell extraction buffer (10 mM Tris, pH 7.4, 100 mM NaCl, 1 mM EDTA, 1 mM EGTA, 1 mM NaF, 20 mM Na4P2O7, 2 mM Na3VO4, 1% Triton X-100, 10 vol % glycerol, 0.1 vol % SDS, 0.5 vol % deoxycholate, 1 mM phenylmethylsulfonylfluorid (PMSF)). The lysate were centrifuged for 10 min. at 4° C. and the supernatant were transferred to a new tube. 50 μl of sample diluent (standard diluent buffer, Biosource) were added and 100 μl of cell lysate transferred into the tube and vortexed. 100 μl of each diluted cell lysate were added to the appropriate ELISA well plate and incubated for 3 h at room temperature. The plates were washed 4 times with 1× wash buffer (Biosource). 50 μl of detection antibody (GSK3 (Ser9) detection antibody; BioSource) were added to each well and incubated for 30 min. at room temperature. The washing procedure was repeated between each step. 100 μl of HRP-linked secondary antibody (anti-mouse IgG HRP-linked antibody) were added to each well and incubated for 30 min. at room temperature. 100 μl of TMB substrate (0.05 vol % 3,3′,5,5′ tetramethylbenzidine, 0.1 vol % hydrogen peroxide, complex polypeptides in a buffered solution; Biosource) were added to each well and incubated for 30 min. at room temperature. Finally 100 μl of Stop solution (0.05 vol % α and β unsaturated carbonyl compound) were added to each well and the plate were shaked gently for a few seconds. The absorbance was measured at ? 450 nm (Wallac Victor2; Perkin Elmer, USA) within 30 min. after adding the stop solution.
The analysis of the data was performed using a statistical program (Excel; Microsoft, USA) and the IC50 of pGSK3 inhibition was determined.

OvCAR3 cells = experiment: Cellular proliferation/cytotoxicity assay (Alamar Blue), OvCAR3 cells; type: cell-based; settings: Homo sapiens, OVCAR-3, 72 h, Alamar Blue (Resazurin), read-out: Anti-proliferative/Cytotoxic activity (OvCAR3 cells)
Description: Viabilities are expressed as % values.

Row | Structure (SMILES) | IC50 (phospho-Akt (Ser473)) [µM] | IC50 (A549 cells [1]) [µM] | IC50 (A549 cells [2]) [µM] | IC50 (phospho-GSK3 (Ser9)) [µM] | IC50 (OvCAR3 cells) [µM] | IC50 (phospho-Akt (Ser473); Homo sapiens) [µM]
1 | N#Cc1cccn2c(-c3ccccc3)c(-c3ccc(CN4CCC(c5nnc(-c6cccs6)[nH]5)CC4)cc3)nc12 [Example 98, ′3-phenyl-2-[4-({4-[5-(2-thienyl)-4H-1,2,4-triazol-3-yl]piperidin-1-yl}methyl)phenyl]imidazo[1,2-a]pyridine-8-carbonitrile] | < 1 | > 10 |  |  |  | 
2 | c1ccc(-c2nc(C3CCN(Cc4ccc(-c5nc6sccn6c5-c5nccs5)cc4)CC3)n[nH]2)nc1 [Example 42, 6-(4-{[4-(5-pyridin-2-yl-1,2,4-triazol-3-yl)piperidin-1-yl]methyl}phenyl)-5-(1,3-thiazol-2-yl)imidazo[2,1-b][1,3]thiazole] |  |  | < 10 | > 10 | < 10 | 
3 | COc1ccn2c(-c3ccccc3)c(-c3ccc(CN4CCC(c5nnc(-c6cccc(C)n6)[nH]5)CC4)cc3)nc2c1 [Example 68, ′7-methoxy-2-[4-({4-[5-(6-methylpyridin-2-yl)-4H-1,2,4-triazol-3-yl]piperidin-1-yl}methyl)phenyl]-3-phenylimidazo[1,2-a]pyridine] | < 1 | < 10 |  |  |  | 
4 | N#Cc1cccn2c(-c3ccccc3)c(-c3ccc(CN4CCC(c5nnc(-c6ccncc6)[nH]5)CC4)cc3)nc12 [Example 59, ′3-phenyl-2-(4-{[4-(5-pyridin-4-yl-4H-1,2,4-triazol-3-yl)piperidin-1-yl]methyl}phenyl)imidazo[1,2-a]pyridine-8-carbonitrile] | < 1 | < 10 |  |  |  | 
5 | Cc1ccc(-c2nnc(C3CCN(Cc4ccc(-c5nc6c(C#N)cccn6c5-c5ccccc5)cc4)CC3)[nH]2)nc1 [Example 71, ′2-[4-({4-[5-(5-methylpyridin-2-yl)-4H-1,2,4-triazol-3-yl]piperidin-1-yl}methyl)phenyl]-3-phenylimidazo[1,2-a]pyridine-8-carbonitrile] | < 1 | < 10 |  |  |  | 
6 | Fc1ccccc1-c1c(-c2ccc(CN3CCC(c4n[nH]c(-c5ccccn5)n4)CC3)cc2)nc2ncccn12 [Example 41, 3-(2-fluorophenyl)-2-(4-{[4-(5-pyridin-2-yl-1,2,4-triazol-3-yl)piperidin-1-yl]methyl}phenyl)imidazo[1,2-a]pyrimidine] |  |  | > 10 | 1 to 10 | < 10 | 
7 | N#Cc1cccn2c(-c3ccccc3)c(-c3ccc(CN4CCC(c5nnc(-c6ccc[nH]6)[nH]5)CC4)cc3)nc12 [Example 105, ′3-phenyl-2-[4-({4-[5-(1H-pyrrol-2-yl)-4H-1,2,4-triazol-3-yl]piperidin-1-yl}methyl)phenyl]imidazo[1,2-a]pyridine-8-carbonitrile] | < 1 | < 10 |  |  |  | 
8 | Fc1cc(F)c2nc(-c3ccc(CN4CCC(c5nnc(-c6ccccn6)[nH]5)CC4)cc3)c(-c3ccccc3)n2c1 [Example 44, 6,8-Difluoro-3-phenyl-2-{4-[4-(5-pyridin-2-yl-4H-[1,2,4]triazol-3-yl)-piperidin-1-ylmethyl]-phenyl}-imidazo[1,2-a]pyridine] |  |  | > 10 | 1 to 10 | < 10 | < 1
9 | Cc1cn2c(-c3ccccc3)c(-c3ccc(CN4CCC(c5nnc(-c6ccccn6)[nH]5)CC4)cc3)nc2s1 [Example 46, 2-methyl-5-phenyl-6-[4-({4-[5-(pyridin-2-yl)-4H-1,2,4-triazol-3-yl]piperidin-1-yl}methyl)phenyl]imidazo[2,1-b][1,3]thiazole] |  |  | < 10 | 1 to 10 |  | < 1
